What was measured:
Type in all cases: in vivo
[1] = system: foxtail, giant (giant foxtail, Setaria faberii); assay: Test A greenhouse herbicide test, pre- and postemergence
How it was run: (§1)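 Seeds sown in loam–sand blend got a preemergence directed soil spray of compound in non-phytotoxic solvent with surfactant. Postemergence treatment was given at 2–10 cm, one- to two-leaf stage. After ~10 d in greenhouse, injury was rated visually vs untreated controls, 0 (no effect) to 100 (complete control).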

[2] = system: barnyardgrass (Echinochloa crus-galli); assay: as above
How it was run: as §1

kochia (Kochia scoparia) = assay: as above
How it was run: as §1

[3] = system: ragweed (common ragweed, Ambrosia elatior); assay: as above
How it was run: as §1

[4] = system: ryegrass, Italian (Italian ryegrass, Lolium multiflorum); assay: as above
How it was run: as §1

corn (Zea mays) = assay: as above; details: Postemergence
How it was run: as §1

[5] = system: wheat (Triticum aestivum); assay: as above; details: Postemergence
How it was run: as §1

[6] = system: pigweed (Amaranthus retroflexus); assay: as above
How it was run: as §1

[7] = system: barnyardgrass (Echinochloa crus-galli); assay: Test C greenhouse herbicide test, pre- and postemergence
From the text: Seeds of plant species selected from blackgrass (Alopecurus myosuroides), ryegrass, Italian (Italian ryegrass, Lolium multiflorum), wheat (winter wheat, Triticum aestivum), galium (catchweed bedstraw, Galium aparine), corn (Zea mays), large crabgrass, large (large crabgrass, Digitaria sanguinalis), foxtail, giant (giant foxtail, Setaria faberii), johnsongrass (Sorghum halepense), lambsquarters (Chenopodium album), morningglory (Ipomoea coccinea), nutsedge, yellow (yellow nutsedge, Cyperus esculentus), pigweed (Amaranthus retroflexus), ragweed (common ragweed, Ambrosia elatior), soybean (Glycine max), barnyardgrass (Echinochloa crus-galli), oilseed rape (Brassica napus), waterhemp (common waterhemp, Amaranthus rudis), and velvetleaf (Abutilon theophrasti) were planted into a blend of loam soil and sand and treated preemergence with test chemicals formulated in a non-phytotoxic solvent mixture which included a surfactant.
At the same time, plants selected from these crop and weed species and also chickweed (common chickweed, Stellaria media), kochia (Kochia scoparia), and oat, wild (wild oat, Avena fatua), were planted in pots containing Redi-Earth® planting medium (Scotts Company, 14111 Scottslawn Road, Marysville, Ohio 43041) comprising spaghnum peat moss, vermiculite, wetting agent and starter nutrients and treated with postemergence applications of test chemicals formulated in the same manner. Plants ranged in height from 2 to 18 cm (1- to 4-leaf stage) for postemergence treatments. Treated plants and controls were maintained in a greenhouse for 13 to 15 d, after which time all species were compared to controls and visually evaluated. Plant response ratings, summarized in Table C, are based on a scale of 0 to 100 where 0 is no effect and 100 is complete control. A dash (-) response means no test result.

[8] = system: blackgrass (Alopecurus myosuroides); assay: Test A greenhouse herbicide test, postemergence
How it was run: (§2)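 Plants grown in loam soil/sand blend pots were treated postemergence at 2 to 10 cm height, one- to two-leaf stage, with formulated test chemicals. After approximately 10 d in a greenhouse, injury was rated visually against untreated controls on a 0 to 100 scale (0 no effect, 100 complete control).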

[9] = system: galium (catchweed bedstraw, Galium aparine); assay: Test A greenhouse herbicide test, postemergence
How it was run: as §2

[10] = Postemergence, 125 g ai/ha, 0 to 100 scale where 0 is no effect and 100 is complete control
[11] = Postemergence, 500 g ai/ha, visual rating after approx. 10 d, 0 to 100 scale (0 no effect, 100 complete control)
[12] = Preemergence, 125 g ai/ha, 0 to 100 scale where 0 is no effect and 100 is complete control
[13] = Preemergence, 500 g ai/ha, 0 to 100 scale where 0 is no effect and 100 is complete control
[14] = 125 g ai/ha, 0 to 100 scale where 0 is no effect and 100 is complete control
[15] = 500 g ai/ha, visual rating after approx. 10 d, 0 to 100 scale (0 no effect, 100 complete control)
[16] = Postemergence, 125 g ai/ha, scale 0 to 100, 0 is no effect, 100 is complete control
[17] = Postemergence, 250 g ai/ha, scale 0 to 100, 0 no effect, 100 complete control, 13 to 15 d
[18] = Postemergence, 125 g ai/ha, visual rating after approx. 10 d, 0 to 100 scale (0 no effect, 100 complete control)
[19] = Postemergence, 500 g ai/ha, 0 to 100 scale, 0 is no effect, 100 is complete control
[20] = Preemergence, 500 g ai/ha, 0 to 100 scale, 0 no effect, 100 complete control
[21] = 125 g ai/ha, visual rating after approx. 10 d, 0 to 100 scale (0 no effect, 100 complete control)
[22] = 500 g ai/ha, 0 to 100 scale, 0 is no effect, 100 is complete control

CC(=O)Oc1c(Br)nn(C)c(=O)c1-c1c(C)ccc2ccccc12 [Compound 129]
Plant response rating, Foxtail, Giant [1, 10]: 90 | Plant response rating, Foxtail, Giant [1, 11]: 100 | Foxtail, Giant plant response rating [1, 12]: 90 | Plant response rating, Foxtail, Giant [1, 13]: 100 | Plant response rating, Barnyardgrass [2, 10]: 90 | Plant response rating, Barnyardgrass [2, 11]: 100 | Barnyardgrass plant response rating [2, 12]: 90 | Plant response rating, Barnyardgrass [2, 13]: 100 | Plant response rating, Kochia (kochia (Kochia scoparia); [10]): 70 | Plant response rating, Kochia (kochia (Kochia scoparia); [11]): 90 | Kochia plant response rating (kochia (Kochia scoparia); [12]): 70 | Plant response rating, Kochia (kochia (Kochia scoparia); [13]): 90 | Plant response rating, Ragweed [3, 10]: 100 | Plant response rating, Ragweed [3, 11]: 100 | Ragweed plant response rating [3, 12]: 90 | Plant response rating, Ragweed [3, 13]: 90 | Plant response rating, Ryegrass, Italian [4, 10]: 100 | Plant response rating, Ryegrass, Italian [4, 11]: 100 | Ryegrass, Italian plant response rating [4, 12]: 100 | Plant response rating, Ryegrass, Italian [4, 13]: 100 | Plant response rating, Corn (corn (Zea mays); [14]): 10 | Plant response rating, Corn (corn (Zea mays); [15]): 80 | Plant response rating, Wheat [5, 14]: 20 | Plant response rating, Wheat [5, 15]: 80 | Plant response rating, Pigweed [6, 10]: 90 | Plant response rating, Pigweed [6, 11]: 100 | Pigweed plant response rating [6, 12]: 100 | Plant response rating, Pigweed [6, 13]: 100 | Plant response rating, Barnyardgrass ([7]; Postemergence, 31 g ai/ha, scale 0 to 100 (0 no effect, 100 complete control)): 50 | Barnyardgrass plant response rating ([7]; Postemergence, 62 g ai/ha, 0 to 100 scale (0 no effect, 100 complete control)): 65 | Plant response rating, Barnyardgrass [7, 16]: 70 | Plant response rating, Barnyardgrass [7, 17]: 85 | Plant response rating, Barnyardgrass ([7]; Preemergence, 31 g ai/ha, scale 0 to 100, 0 is no effect, 100 is complete control): 15 | Plant response rating, Barnyardgrass ([7]; Preemergence, 62 g ai/ha, scale 0 to 100, 0 is no effect, 100 is complete control): 70 | Plant response rating, Barnyardgrass ([7]; Preemergence, 125 g ai/ha, scale 0 to 100, 0 is no effect, 100 is complete control): 100 | Barnyardgrass plant response rating ([7]; Preemergence, 250 g ai/ha, scale 0 to 100 (0 no effect, 100 complete control)): 90 | Plant response rating, Blackgrass [8, 14]: 60 | Plant response rating, Blackgrass [8, 15]: 100 | Plant response rating, Galium [9, 14]: 100 | Plant response rating, Galium [9, 15]: 100

COc1nn(C)c(=O)c(-c2c(C)sc3ccccc23)c1O [Compound 33]
Plant response rating, Foxtail, Giant [1, 18]: 40 | Foxtail, Giant plant response rating [1, 19]: 90 | Foxtail, Giant plant response rating [1, 12]: 50 | Plant response rating, Foxtail, Giant [1, 20]: 70 | Plant response rating, Barnyardgrass [2, 18]: 40 | Barnyardgrass plant response rating [2, 19]: 90 | Barnyardgrass plant response rating [2, 12]: 20 | Plant response rating, Barnyardgrass [2, 20]: 90 | Plant response rating, Kochia (kochia (Kochia scoparia); [18]): 90 | Kochia plant response rating (kochia (Kochia scoparia); [19]): 100 | Kochia plant response rating (kochia (Kochia scoparia); [12]): 30 | Plant response rating, Kochia (kochia (Kochia scoparia); [20]): 80 | Plant response rating, Ragweed [3, 18]: 90 | Ragweed plant response rating [3, 19]: 90 | Ragweed plant response rating [3, 12]: 80 | Plant response rating, Ragweed [3, 20]: 100 | Plant response rating, Ryegrass, Italian [4, 10]: 50 | Ryegrass, Italian plant response rating [4, 19]: 70 | Ryegrass, Italian plant response rating [4, 12]: 20 | Plant response rating, Ryegrass, Italian [4, 20]: 60 | Plant response rating, Corn (corn (Zea mays); [21]): 0 | Corn plant response rating (corn (Zea mays); [22]): 10 | Plant response rating, Wheat [5, 14]: 0 | Wheat plant response rating [5, 22]: 0 | Plant response rating, Pigweed [6, 18]: 40 | Pigweed plant response rating [6, 19]: 70 | Pigweed plant response rating [6, 12]: 20 | Plant response rating, Pigweed [6, 20]: 20 | Barnyardgrass plant response rating ([7]; Postemergence, 31 g ai/ha, 0 to 100 scale (0 no effect, 100 complete control)): 25 | Plant response rating, Barnyardgrass [7, 16]: 50 | Plant response rating, Barnyardgrass [7, 17]: 80 | Barnyardgrass plant response rating ([7]; postemergence, 62 g ai/ha, scale 0 to 100, 0 no effect, 100 complete control): 25 | Plant response rating, Blackgrass [8, 21]: 10 | Blackgrass plant response rating [8, 22]: 40 | Plant response rating, Galium [9, 21]: 90 | Galium plant response rating [9, 22]: 100

Source: patent publication US10597388B2, “Pyridazinone herbicides” (FMC CORPORATION, priority 2014, dated 2020)
